# Results published in PubChem BioAssay (NCI).
#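 Cells were grown in 96-well plates and exposed to each compound for 48 hours at five concentrations; endpoints were interpolated linearly between bracketing concentrations, or set to the highest concentration if not reached. TGI is the concentration that stops growth completely.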
# Tests used:
# Assay in all cases: NCI tumour cell line growth inhibition, 48 h
# [1] = tested on: HCT-116 colon
# [2] = tested on: HOP-18 NSCLC
# [3] = tested on: LOX IMVI melanoma
# [4] = tested on: CCRF-CEM leukemia
# [5] = tested on: MALME-3M melanoma
# [6] = tested on: DMS 114 small cell lung
# [7] = tested on: SK-MEL-28 melanoma
# [8] = tested on: HT29 colon
# [9] = tested on: NCI-H460 lung
# [10] = tested on: OVCAR-3 ovarian
# [11] = tested on: HOP-62 NSCLC
# [12] = tested on: K-562 leukemia
# [13] = tested on: UACC-62 melanoma
# [14] = tested on: SNB-78 CNS
# [15] = tested on: MOLT-4 leukemia
# [16] = tested on: UO-31 renal
# [17] = tested on: NCI-H522 lung
# [18] = tested on: SNB-19 CNS
# [19] = tested on: HL-60(TB) leukemia
# [20] = tested on: NCI-H226 lung
# [21] = tested on: SK-MEL-5 melanoma
# [22] = tested on: HOP-92 NSCLC
# [23] = tested on: SW-620 colon
# [24] = tested on: EKVX NSCLC
# [25] = tested on: A549 NSCLC
# [26] = tested on: SN12K1 renal
# [27] = tested on: SF-295 CNS
# [28] = tested on: SN12C renal
# [29] = tested on: COLO 205 colon
# [30] = tested on: KM12 colon
# [31] = tested on: M19-MEL melanoma
# [32] = tested on: OVCAR-4 ovarian
# [33] = tested on: XF 498 CNS
# [34] = tested on: MCF7 breast
# [35] = tested on: CAKI-1 renal
# [36] = tested on: UACC-257 melanoma
# [37] = tested on: DMS 273 small cell lung
# [38] = tested on: KM20L2 colon
# [39] = tested on: DLD-1 colon
# [40] = tested on: SF-268 CNS
# [41] = tested on: NCI/ADR-RES ovarian
# [42] = tested on: IGROV1 ovarian
# [43] = tested on: OVCAR-5 ovarian
# [44] = tested on: RPMI-8226 leukemia
# [45] = tested on: NCI-H23 lung
# [46] = tested on: SK-OV-3 ovarian
# [47] = tested on: A498 renal
# [48] = tested on: U251 CNS
# [49] = tested on: SNB-75 CNS
# [50] = tested on: SF-539 CNS
# [51] = tested on: OVCAR-8 ovarian
# [52] = tested on: RXF 393 renal
# [53] = tested on: SK-MEL-2 melanoma
# [54] = tested on: HCC-2998 colon
# [55] = tested on: P388/ADR leukemia
# [56] = tested on: P388 leukemia
# [57] = tested on: HCT-15 colon
compound,measurement,setting,value
C=C1C(=O)O[C@H]2C1[C@H](OC(=O)/C(C)=C\COC(C)=O)C[C@]1(CO1)[C@@H]1[C@H](O)[C@H]3O[C@@]3(C)[C@@H]12 (stereo partly drawn),TGI,[1],26.5 µM
same,TGI,[2],41.4 µM
same,TGI,[3],37.2 µM
same,TGI,[4],54.2 µM
same,TGI,[5],38 µM
same,TGI,[6],42.6 µM
same,TGI,[7],31.7 µM
same,TGI,[8],40.8 µM
same,TGI,[9],> 100 µM
same,TGI,[10],44.8 µM
same,TGI,[11],> 100 µM
same,TGI,[12],27 µM
same,TGI,[13],30.4 µM
same,TGI,[14],> 73.5 µM
same,TGI,[15],> 73.3 µM
same,TGI,[16],> 100 µM
same,TGI,[17],22.8 µM
same,TGI,[18],> 100 µM
same,TGI,[19],> 57.7 µM
same,TGI,[20],78.1 µM
same,TGI,[21],37.8 µM
same,TGI,[22],30.8 µM
same,TGI,[23],30.8 µM
same,TGI,[24],57.3 µM
same,TGI,[25],> 100 µM
same,TGI,[26],> 55.9 µM
same,TGI,[27],> 100 µM
same,TGI,[28],> 57.1 µM
same,TGI,[29],21.9 µM
same,TGI,[30],29.5 µM
same,TGI,[31],34.4 µM
same,TGI,[32],> 77.3 µM
same,TGI,[33],38.4 µM
same,TGI,[34],27.8 µM
same,TGI,[35],31.5 µM
same,TGI,[36],31.3 µM
same,TGI,[37],> 63.2 µM
same,TGI,[38],> 82.7 µM
same,TGI,[39],34.1 µM
same,TGI,[40],49.7 µM
same,TGI,[41],54.7 µM
same,TGI,[42],59.8 µM
same,TGI,[43],> 100 µM
same,TGI,[44],46.5 µM
same,TGI,[45],29.7 µM
same,TGI,[46],> 100 µM
same,TGI,[47],99 µM
same,TGI,[48],44.7 µM
same,TGI,[49],> 96.2 µM
same,TGI,[50],> 65.4 µM
same,TGI,[51],99.5 µM
same,TGI,[52],32.9 µM
same,TGI,[53],48.8 µM
same,TGI,[54],22.2 µM
same,TGI,[55],30 µM
same,TGI,[56],18.4 µM
same,TGI,[57],> 56.1 µM
O=CNc1cccc2c3c([nH]c12)CCCCCC3,TGI,[1],> 100 µM
same,TGI,[2],> 100 µM
same,TGI,[3],> 100 µM
same,TGI,[4],> 100 µM
same,TGI,[5],> 100 µM
same,TGI,[6],> 100 µM
same,TGI,[7],> 100 µM
same,TGI,[8],> 100 µM
same,TGI,[9],> 100 µM
same,TGI,[10],> 100 µM
same,TGI,[11],> 100 µM
same,TGI,[12],> 100 µM
same,TGI,[13],> 100 µM
same,TGI,[14],> 100 µM
same,TGI,[15],> 100 µM
same,TGI,[16],> 100 µM
same,TGI,[17],> 100 µM
same,TGI,[18],> 100 µM
same,TGI,[19],> 100 µM
same,TGI,[20],> 100 µM
same,TGI,[21],> 100 µM
same,TGI,[22],> 100 µM
same,TGI,[23],> 100 µM
same,TGI,[24],> 100 µM
same,TGI,[25],> 100 µM
same,TGI,[26],> 100 µM
same,TGI,[27],> 100 µM
same,TGI,[28],> 100 µM
same,TGI,[29],> 100 µM
same,TGI,[30],> 100 µM
same,TGI,[31],> 100 µM
same,TGI,[32],> 100 µM
same,TGI,[33],> 100 µM
same,TGI,[34],> 100 µM
same,TGI,[35],> 100 µM
same,TGI,[36],> 100 µM
same,TGI,[37],> 100 µM
same,TGI,[38],> 100 µM
same,TGI,[39],> 100 µM
same,TGI,[40],> 100 µM
same,TGI,[41],> 100 µM
same,TGI,[42],> 100 µM
same,TGI,[43],> 100 µM
same,TGI,[45],> 100 µM
same,TGI,[46],> 100 µM
same,TGI,[47],> 100 µM
same,TGI,[48],> 100 µM
same,TGI,[49],> 100 µM
same,TGI,[50],> 100 µM
same,TGI,[51],> 100 µM
same,TGI,[52],> 100 µM
same,TGI,[53],> 100 µM
same,TGI,[54],> 100 µM
same,TGI,[55],> 100 µM
same,TGI,[56],> 100 µM
same,TGI,[57],> 100 µM
